Measured values reported in patent US10597388B2, “Pyridazinone herbicides” (FMC CORPORATION, priority 2014, dated 2020).

Key:
Experiment in all cases: Test E greenhouse herbicide test, pre- and postemergence
Assay type in all cases: in vivo
[1] = system: dayflower (Virginia (VA) dayflower, Commelina virginica)
Summary of the method: (§1)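 Pre- and postemergence sprays, same solvent–surfactant formulation. Substrate: silt loam (pre), peat-based mix (post, 1–4 leaf, 2–18 cm). Readout: visual control rating 0–100 against controls at 14–21 d.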

[2] = system: momingglory (Ipomoea coccinea); conditions: Preemergence
Summary of the method: as §1

[3] = system: sandbur (southem sandbur, Cenchrus echinatus)
Summary of the method: as §1

[4] = system: nutsedge, yellow (yellow nutsedge, Cyperus esculentus); conditions: Preemergence
Summary of the method: as §1

[5] = system: panicum, fall (fall panicum, Panicum dichotomiflorum)
Summary of the method: as §1

[6] = system: goosegrass (Eleusine indica); conditions: Preemergence
Summary of the method: as §1

[7] = system: Italian ryegrass (Lolium multiflorum)
Summary of the method: as §1

[8] = system: crabgrass, Brazilian (Brazilian crabgrass, Digitaria horizontalis)
Summary of the method: as §1

soybean (Glycine max) = system: soybean (Glycine max)
Summary of the method: as §1

[9] = system: barnyardgrass (Echinochloa crus-galli)
Summary of the method: as §1

corn (Zea mays) = system: corn (Zea mays)
Summary of the method: as §1

[10] = system: arrowleaf sida (Sida rhombifolia)
Summary of the method: as §1

[11] = system: ragweed (common ragweed, Ambrosia elatior)
Summary of the method: as §1

[12] = system: foxtail, green (green foxtail, Setaria viridis); conditions: Preemergence
Summary of the method: as §1

[13] = system: horseweed (Conyza canadensis); conditions: Postemergence
Summary of the method: as §1

[14] = 62 g ai/ha, Postemergence, scale 0 to 100 (0 no effect, 100 complete control)
[15] = 62 g ai/ha, Preemergence, scale 0 to 100 (0 no effect, 100 complete control)
[16] = 125 g ai/ha, Postemergence, scale 0 to 100 (0 no effect, 100 complete control)
[17] = 250 g ai/ha, Postemergence, scale 0 to 100 (0 no effect, 100 complete control)
[18] = Postemergence, 31 g ai/ha, visual, scale 0 no effect to 100 complete control
[19] = Preemergence, 31 g ai/ha, scale 0 to 100, 0 no effect, 100 complete control
[20] = Preemergence, 125 g ai/ha, visual, scale 0 no effect to 100 complete control
[21] = Preemergence, 250 g ai/ha, visual, scale 0 no effect to 100 complete control
[22] = 62 g ai/ha, scale 0 to 100 (0 no effect, 100 complete control)
[23] = 125 g ai/ha, scale 0 to 100 (0 no effect, 100 complete control)
[24] = 31 g ai/ha, scale 0 to 100, 0 no effect, 100 complete control
[25] = 250 g ai/ha, visual, scale 0 no effect to 100 complete control
[26] = 125 g ai/ha, Preemergence, scale 0 to 100 (0 no effect, 100 complete control)
[27] = 125 g ai/ha, visual, scale 0 no effect to 100 complete control

CCc1sc2ccc(C)cc2c1-c1c(O)c(C)nn(C)c1=O [Compound 47]
90: Plant response rating, Arrowleaf Sida [10, 21] | Plant response rating, Ragweed [11, 14]
25: Plant response rating, Morningglory [2, 24] | Plant response rating, Sandbur [3, 16] | Plant response rating, Crabgrass, Brazil [8, 16] | Plant response rating, Soybean (soybean (Glycine max); [14])
10: Plant response rating, Dayflower, VA [1, 17] | Plant response rating, Sandbur [3, 26] | Plant response rating, Ryegrass, Italian [7, 17] | Plant response rating, Barnyardgrass [9, 18]
55: Plant response rating, Panicum, Fall [5, 14] | Plant response rating, Panicum, Fall [5, 16]
50: Plant response rating, Panicum, Fall [5, 15] | Plant response rating, Panicum, Fall [5, 19] | Plant response rating, Ryegrass, Italian [7, 21] | Plant response rating, Barnyardgrass [9, 20] | Plant response rating, Arrowleaf Sida [10, 14]
40: Plant response rating, Panicum, Fall [5, 18] | Plant response rating, Crabgrass, Brazil [8, 17] | Plant response rating, Soybean (soybean (Glycine max); [21]) | Plant response rating, Barnyardgrass [9, 16] | Plant response rating, Arrowleaf Sida [10, 18] | Plant response rating, Horseweed [13, 22] | Plant response rating, Horseweed ([13]; 31 g ai/ha, visual, scale 0 no effect to 100 complete control)
5: Plant response rating, Dayflower, VA [1, 14] | Plant response rating, Ryegrass, Italian [7, 19] | Plant response rating, Corn (corn (Zea mays); [14]) | Plant response rating, Corn (corn (Zea mays); [16])
98: Plant response rating, Ragweed [11, 26]
35: Plant response rating, Sandbur [3, 17] | Plant response rating, Nutsedge, Yellow [4, 25]
95: Plant response rating, Panicum, Fall [5, 21] | Plant response rating, Barnyardgrass [9, 21] | Plant response rating, Ragweed [11, 15] | Plant response rating, Ragweed [11, 16] | Plant response rating, Ragweed [11, 17]
0: Plant response rating, Dayflower, VA [1, 15] | Plant response rating, Dayflower, VA [1, 16] | Plant response rating, Dayflower, VA [1, 18] | Plant response rating, Dayflower, VA [1, 19] | Plant response rating, Dayflower, VA [1, 20] | Plant response rating, Sandbur [3, 15] | Plant response rating, Sandbur [3, 19] | Plant response rating, Nutsedge, Yellow [4, 24] | Plant response rating, Goosegrass [6, 22] | Plant response rating, Goosegrass [6, 24] | Plant response rating, Goosegrass [6, 27] | Plant response rating, Goosegrass [6, 25] | Plant response rating, Ryegrass, Italian [7, 14] | Plant response rating, Ryegrass, Italian [7, 16] | Plant response rating, Ryegrass, Italian [7, 18] | Plant response rating, Crabgrass, Brazil [8, 15] | Plant response rating, Crabgrass, Brazil [8, 19] | Plant response rating, Crabgrass, Brazil [8, 20] | Plant response rating, Soybean (soybean (Glycine max); [15]) | Plant response rating, Soybean (soybean (Glycine max); [26]) | Plant response rating, Soybean (soybean (Glycine max); [19]) | Plant response rating, Barnyardgrass [9, 15] | Plant response rating, Barnyardgrass [9, 19] | Plant response rating, Corn (corn (Zea mays); [15]) | Plant response rating, Corn (corn (Zea mays); [18]) | Plant response rating, Corn (corn (Zea mays); [19]) | Plant response rating, Corn (corn (Zea mays); [20]) | Plant response rating, Corn (corn (Zea mays); [21]) | Plant response rating, Arrowleaf Sida [10, 15] | Plant response rating, Arrowleaf Sida [10, 19] | Plant response rating, Foxtail, Green [12, 24]
75: Plant response rating, Morningglory [2, 22] | Plant response rating, Arrowleaf Sida [10, 20] | Plant response rating, Horseweed ([13]; 250 g ai/ha, scale 0 to 100 (0 no effect, 100 complete control))
80: Plant response rating, Dayflower, VA [1, 21] | Plant response rating, Panicum, Fall [5, 26] | Plant response rating, Ragweed [11, 18] | Plant response rating, Ragweed [11, 19]
70: Plant response rating, Sandbur [3, 21] | Plant response rating, Panicum, Fall [5, 17] | Plant response rating, Foxtail, Green [12, 25]
60: Plant response rating, Crabgrass, Brazil [8, 21] | Plant response rating, Barnyardgrass [9, 17] | Plant response rating, Arrowleaf Sida [10, 16] | Plant response rating, Arrowleaf Sida [10, 17] | Plant response rating, Horseweed [13, 23]
100: Plant response rating, Morningglory [2, 23] | Plant response rating, Morningglory [2, 25] | Plant response rating, Ragweed [11, 21]
30: Plant response rating, Nutsedge, Yellow [4, 23] | Plant response rating, Ryegrass, Italian [7, 15] | Plant response rating, Ryegrass, Italian [7, 26] | Plant response rating, Soybean (soybean (Glycine max); [17]) | Plant response rating, Barnyardgrass [9, 14] | Plant response rating, Foxtail, Green [12, 27]
20: Plant response rating, Sandbur [3, 14] | Plant response rating, Sandbur [3, 18] | Plant response rating, Crabgrass, Brazil [8, 14] | Plant response rating, Crabgrass, Brazil [8, 18] | Plant response rating, Soybean (soybean (Glycine max); [16]) | Plant response rating, Soybean (soybean (Glycine max); [18]) | Plant response rating, Corn (corn (Zea mays); [17]) | Plant response rating, Foxtail, Green [12, 22]
